# From US5739111A, “Modulating body/cranial hair growth with derivatives of the α-type melanocyte-stimulating hormone” (Societe L'Oreal S.A., priority 1995, dated 1998)
# Where a SMILES comes first, the peptide text is derived from it.
# System: hair follicles
# Assay: lengthening and survival of hair follicles maintained in vitro
# Format: cell-based
# Design: Mean lengthening: unit not given here
# Method: Viable in vitro hair follicles were prepared according to the technique described in French Patent Application No. 95-08465, filed July 12, 1995 and assigned to the assignee hereof.
# From a scalp biopsy, a rather fine strip of scalp was isolated using a scalpel. The adipose tissue surrounding the follicles was removed with microforceps while avoiding damage to the hair bulb. The follicles were cut out with a scalpel under a microscope in order to separate them from their epidermal and dermal surroundings.
# The follicles were then cultured in the wells of Costar-type 24-well plates, at the rate of one follicle per well. Each well contained 0.5 ml of Williams' medium E, to which had been added penicillin and Streptomycin to a final concentration of 50 IU/ml, glutamine to 2 mM, bovine insulin to 0.01 mg/ml and hydrocortisone to 0.04 mg/ml.
# The follicles were then measured using a microscope equipped with a micrometric eyepiece.
# After 24 hours, the follicles were again measured and those which had lengthened by less than 0.3 divisions of the micrometer, corresponding to 0.16 mm, were discarded.
# The five (5) following culturing conditions were tested:
# Condition A: Complete Williams' medium E, without peptide.
# Condition B: Complete Williams' medium E+10 mM Ac-LPV-NH2.
# Condition C: Complete Williams' medium E+1 mM Ac-LPV-N2.
# Condition D: Complete Williams' medium E+0.1 mM Ac-LPV-NH2.
# [1] = summary in words, versus medium without peptide
structure (smiles),measurement,setting,value
CC(=O)N[C@@H](CCCCN)C(=O)N1CCC[C@H]1C(=O)N[C@H](C(N)=O)C(C)C [Acetyl-Lys-Pro-Val-NH2] (Ac-Lys-Pro-Val-NH2),Mean lengthening,"1 mM (Conditions C, E) in complete Williams' medium E, day 0",0.00
same,% Survival,"1 mM (Conditions C, E), day 0",100%
same,% Survival,"1 mM (Conditions C, E), day 1",100%
same,Mean lengthening,"1 mM (Conditions C, E), day 1",0.38
same,% Survival,"1 mM (Conditions C, E), day 4",100%
same,Mean lengthening,"1 mM (Conditions C, E), day 4",1.05
same,% Survival,"1 mM (Conditions C, E), day 5",100%
same,Mean lengthening,"1 mM (Conditions C, E), day 5",1.21
same,% Survival,"1 mM (Conditions C, E), day 6",100%
same,Mean lengthening,"1 mM (Conditions C, E), day 6",1.28
same,% Survival,"1 mM (Conditions C, E), day 7",91%
same,Mean lengthening,"1 mM (Conditions C, E), day 7",1.42
same,% Survival,"1 mM (Conditions C, E), day 8",55%
same,Mean lengthening,"1 mM (Conditions C, E), day 8",1.39
same,% Survival,"1 mM (Conditions C, E), day 11",36%
same,Mean lengthening,"1 mM (Conditions C, E), day 11",1.70
same,Mean lengthening,"Condition B, 10 mM in complete Williams' medium E, day 0",0.00
same,% Survival,"Condition B, 10 mM, day 0",100%
same,% Survival,"Condition B, 10 mM, day 1",100%
same,Mean lengthening,"Condition B, 10 mM, day 1",0.38
same,% Survival,"Condition B, 10 mM, day 4",100%
same,Mean lengthening,"Condition B, 10 mM, day 4",1.11
same,% Survival,"Condition B, 10 mM, day 5",100%
same,Mean lengthening,"Condition B, 10 mM, day 5",1.33
same,% Survival,"Condition B, 10 mM, day 6",100%
same,Mean lengthening,"Condition B, 10 mM, day 6",1.43
same,% Survival,"Condition B, 10 mM, day 7",100%
same,Mean lengthening,"Condition B, 10 mM, day 7",1.54
same,% Survival,"Condition B, 10 mM, day 8",92%
same,Mean lengthening,"Condition B, 10 mM, day 8",1.74
same,% Survival,"Condition B, 10 mM, day 11",83%
same,Mean lengthening,"Condition B, 10 mM, day 11",1.96
same,% Survival,"Condition B, 10 mM, day 12",42%
same,Mean lengthening,"Condition B, 10 mM, day 12",2.40
same,Mean lengthening,"Condition D, 0.1 mM in complete Williams' medium E, day 0",0.00
same,% Survival,"Condition D, 0.1 mM, day 0",100%
same,% Survival,"Condition D, 0.1 mM, day 1",100%
same,Mean lengthening,"Condition D, 0.1 mM, day 1",0.37
same,% Survival,"Condition D, 0.1 mM, day 4",100%
same,Mean lengthening,"Condition D, 0.1 mM, day 4",1.10
same,% Survival,"Condition D, 0.1 mM, day 5",100%
same,Mean lengthening,"Condition D, 0.1 mM, day 5",1.22
same,% Survival,"Condition D, 0.1 mM, day 6",100%
same,Mean lengthening,"Condition D, 0.1 mM, day 6",1.28
same,% Survival,"Condition D, 0.1 mM, day 7",83%
same,Mean lengthening,"Condition D, 0.1 mM, day 7",1.42
same,% Survival,"Condition D, 0.1 mM, day 8",50%
same,Mean lengthening,"Condition D, 0.1 mM, day 8",1.58
same,% Survival,"Condition D, 0.1 mM, day 11",42%
same,Mean lengthening,"Condition D, 0.1 mM, day 11",2.08
same,% Survival,"Condition D, 0.1 mM, day 12",17%
same,Mean lengthening,"Condition D, 0.1 mM, day 12",2.11
same,effect on lengthening of the cultured hair follicles,[1],promoted the lengthening
same,effect on survival time of the cultured hair follicles,[1],increased their survival time
